Data reported in US9382257B2, “Substituted pyrrolo[2,3-b]pyrazines as serine/threonine kinase inhibitors” (Genentech, Inc., priority 2002, dated 2016).
pIC50: −log10 of the molar value.

How the values were obtained:
[1] = target: T1, human ERK-2 (Mitogen Activated Kinase 1) (Homo sapiens, UniProt P28482); experiment: ERK-2 Enzymatic Assay (Example 2); assay type: biochemical; details: Omnia peptide S/T17, 25 μM ATP, read-out: ERK Inhibition IC50
T1 construct: n-terminal 6-His fusion protein in E. coli and corresponding to aa 8-360; 6-His (N); made in house; host or cells: E. coli
Procedure: Compounds were tested in an enzymatic assay using human ERK-2 (Mitogen Activated Kinase 1), recombinantly expressed as an n-terminal 6-His fusion protein in E. coli and corresponding to aa 8-360. The substrate used was the fluorescent Omnia peptide S/T17 (Invitrogen of Carlsbad, Calif.; Cat. KNZ1171C). Test compounds were diluted in DMSO in 3-fold serial dilutions at 100× final concentrations. […] The assay was run at ambient temperature in a white 384-well polypropylene plate (Nunc, Inc of Naperville, Ill.; Cat. 267462) collecting data every 50 seconds for approximately 30 minutes on an Envision plate reader (PerkinElmer, Inc. of Waltham, Mass.); Excitation 340 nm/Emission 495 nm. The data collected from each well was fit to a straight line and the resulting rates were used to calculate percent of control. Percent of control was plotted against compound concentration and IC50 values were determined using a four-parameter fit. Representative date is in TABLE 2 (infra).

[2] = test system: PMA-stimulated P90RSK(Ser380) phosphorylation in HepG2 cells; experiment: Cellular P90RSK(Ser380) Phosphorylation Assay (Example 4); assay type: cell-based; details: Homo sapiens, 1.5 hour compound incubation, PMA 100 ng/mL, normalized to GAPDH, read-out: RSK Inhibition IC50
Procedure: Cellular P90RSK(Ser380) Phosphorylation Assay
Inhibition of PMA-stimulated P90RSK(Ser380) phosphorylation was determined by the following in vitro cellular mechanistic assay, which comprises incubating cells with a compound for 1.5 hours and quantifying fluorescent pP90RSK(Ser380) signal on fixed cells and normalizing to GAPDH signal.
Materials and Methods: HepG2 cells were obtained from ATCC and grown in DMEM supplemented with 10% fetal bovine serum. Cells were plated in 96-well plates at 35,000 cells/well and allowed to attach overnight at 37° C./5% CO2. Diluted compounds were then added at a final concentration of 0.5% DMSO. After 1.5 hour compound incubation, cells were stimulated with the addition of PMA (phorbol 12-myristate 13-acetate) at a final concentration of 100 ng/mL; the PMA stimulation was a 30-minute incubation at 37° C./5% CO2. After the 30-minute PMA stimulation, cells were washed with PBS and fixed in 3.7% formaldehyde in PBS at room temperature for 15-20 minutes. This was followed by another wash in PBS and then permeabilization in 100% MeOH at room temperature for 10-15 minutes. Following the permeabilization incubation, cells were washed in PBS/0.05% Tween-20, followed by a block in Odyssey blocking buffer (LI-COR Biosciences) for at least 1 hour. Antibodies to phosphorylated P90RSK(Ser380) (Cell Signaling #9335, rabbit monoclonal) and GAPDH (Fitzgerald 10R-G109a, mouse monoclonal) were added to the cells and incubated overnight at 4° C. pP90RSK(Ser380) antibody was used at a 1:250 dilution; GAPDH was used at a 1:10,000 dilution. After washing with PBS/0.05% Tween-20, the cells were incubated with fluorescently-labeled secondary antibodies (Anti-rabbit-Alexa Flour680, Invitrogen Cat#A21109; Anti-mouse-IRDye800CW, Rockland Inc. Cat#610-131-121) for 1 hour. Both secondary antibodies were used at a 1:1000 dilution. Cells were then washed and analyzed for fluorescence at both wavelengths using the Odyssey Infrared Imaging System (LI-COR Biosciences). Phosphorylated P90RSK(Ser380) signal was normalized to GAPDH signal. Representative date is in TABLE 2 (infra).

T1 sequence (P28482 8-360): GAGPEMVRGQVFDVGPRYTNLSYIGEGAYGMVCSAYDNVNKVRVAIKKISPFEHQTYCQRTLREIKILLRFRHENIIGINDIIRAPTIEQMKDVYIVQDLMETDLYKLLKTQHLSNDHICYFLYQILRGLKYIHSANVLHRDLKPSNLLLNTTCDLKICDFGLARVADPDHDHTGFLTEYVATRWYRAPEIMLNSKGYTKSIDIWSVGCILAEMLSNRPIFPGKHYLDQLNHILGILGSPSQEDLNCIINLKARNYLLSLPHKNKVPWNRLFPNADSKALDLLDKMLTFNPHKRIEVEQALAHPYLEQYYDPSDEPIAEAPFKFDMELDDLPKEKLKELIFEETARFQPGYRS

pIC50 [1] | Structure (SMILES) | pIC50 [2]
8.56 | Fc1cccc(Cn2cc(-c3c[nH]c4ncc(-c5ccncc5)nc34)cn2)c1 [I-11, 7-[1-(3-fluoro-benzyl)-1H-pyrazol-4-yl]-2-pyridin-4-yl-5H-pyrrolo[2,3-b]pyrazine] | 6.30
8.91 | Cc1[nH]ncc1-c1cnc2[nH]cc(-c3cnn(Cc4ccc(F)cc4F)c3)c2n1 [I-1, 7-[1-(2,4-difluoro-benzyl)-1H-pyrazol-4-yl]-2-(5-methyl-1H-pyrazol-4-yl)-5H-pyrrolo[2,3-b]pyrazine] | 6.62
6.66 | Cc1nc(C(=O)NCc2cncc(-c3c[nH]c4ncc(-c5cn[nH]c5)nc34)c2)c(C)o1 [II-5, 2,5-dimethyl-oxazole-4-carboxylic acid {5-[2-(1H-pyrazol-4-yl)-5H-pyrrolo[2,3-b]pyrazin-7-yl]-pyridin-3-ylmethyl}-amide] | ≤ 4.30
8.47 | COc1cccc(F)c1Cn1cc(-c2c[nH]c3ncc(-c4cn[nH]c4C)nc23)cn1 [I-26] | 6.29
8.69 | Cc1[nH]ncc1-c1cnc2[nH]cc(-c3cnn(Cc4cc(F)ccc4Cl)c3)c2n1 [I-24, 7-[1-(2-chloro-5-fluoro-benzyl)-1H-pyrazol-4-yl]-2-(5-methyl-1H-pyrazol-4-yl)-5H-pyrrolo[2,3-b]pyrazine] | 6.43
7.52 | Cc1[nH]ncc1-c1cnc2[nH]cc(-c3ccc(OCCN4CCOCC4)nc3)c2n1 [II-2, 2-(5-methyl-1H-pyrazol-4-yl)-7-[6-(2-morpholin-4-yl-ethoxy)-pyridin-3-yl]-5H-pyrrolo[2,3-b]pyrazine] | 5.24
7.35 | Cc1n[nH]cc1-c1cnc2[nH]cc(-c3cnn(CCc4ccc(C(F)(F)F)cc4)c3)c2n1 [I-18, 2-(3-methyl-1H-pyrazol-4-yl)-7-{1-[2-(4-trifluoromethyl-phenyl)-ethyl]-1H-pyrazol-4-yl}-5H-pyrrolo[2,3-b]pyrazine] | ≤ 4.30
8.16 | c1ccc(Cn2cc(-c3c[nH]c4ncc(-c5ccncc5)nc34)cn2)cc1 [I-21, 7-(1-benzyl-1H-pyrazol-4-yl)-2-(pyridin-4-yl)-5H-pyrrolo[2,3-b]pyrazine] | 5.89
8.66 | Cc1[nH]ncc1-c1cnc2[nH]cc(-c3cnn(C(C)c4ccccc4Cl)c3)c2n1 (stereo not drawn) [I-25, 7-{1-[1-(2-chloro-phenyl)-ethyl]-1H-pyrazol-4-yl}-2-(5-methyl-1H-pyrazol-4-yl)-5H-pyrrolo[2,3-b]pyrazine] | 6.70
8.82 | Cc1[nH]ncc1-c1cnc2[nH]cc(-c3cnn(Cc4ccccc4[N+](=O)[O-])c3)c2n1 [I-5, 2-(5-methyl-1H-pyrazol-4-yl)-7-[1-(2-nitro-benzyl)-1H-pyrazol-4-yl]-5H-pyrrolo[2,3-b]pyrazine] | 7.01
8.60 | Cc1[nH]ncc1-c1cnc2[nH]cc(-c3cnn(Cc4ccccc4OC(F)F)c3)c2n1 [I-8, 7-[1-(2-difluoromethoxy-benzyl)-1H-pyrazol-4-yl]-2-(5-methyl-1H-pyrazol-4-yl)-5H-pyrrolo[2,3-b]pyrazine] | 6.72
7.52 | Cc1[nH]ncc1-c1cnc2[nH]cc(-c3ccc(NCc4ccccc4)nc3)c2n1 [II-7, benzyl-{5-[2-(5-methyl-1H-pyrazol-4-yl)-5H-pyrrolo[2,3-b]pyrazin-7-yl]-pyridin-2-yl}-amine] | 5.24
7.33 | Cc1[nH]ncc1-c1cnc2[nH]cc(-c3ccc(OCC4CC4)nc3)c2n1 [II-8, 7-(6-cyclopropylmethoxy-pyridin-3-yl)-2-(5-methyl-1H-pyrazol-4-yl)-5H-pyrrolo[2,3-b]pyrazine] | 5.23
8.74 | Cc1[nH]ncc1-c1cnc2[nH]cc(-c3cnn(Cc4c(F)cccc4Cl)c3)c2n1 [I-6, 7-[1-(2-chloro-6-fluoro-benzyl)-1H-pyrazol-4-yl]-2-(5-methyl-1H-pyrazol-4-yl)-5H-pyrrolo[2,3-b]pyrazine] | 6.67
7.61 | Cc1[nH]ncc1-c1cnc2[nH]cc(-c3cnn(Cc4cc(F)ccc4C#N)c3)c2n1 [I-27, 4-fluoro-2-{4-[2-(5-methyl-1H-pyrazol-4-yl)-5H-pyrrolo[2,3-b]pyrazin-7-yl]-pyrazol-1-ylmethyl}-benzonitrile] | 5.70
8.55 | Cc1[nH]ncc1-c1cnc2[nH]cc(-c3cnn([C@@H](C)c4ccccc4Cl)c3)c2n1 [I-9, 7-{1-[(S)-1-(2-chloro-phenyl)-ethyl]-1H-pyrazol-4-yl}-2-(5-methyl-1H-pyrazol-4-yl)-5H-pyrrolo[2,3-b]pyrazine] | 6.52
6.70 | Cc1cc(C(=O)NCc2cncc(-c3c[nH]c4ncc(-c5cn[nH]c5)nc34)c2)no1 [II-4] | 5.43
8.56 | Fc1cccc(Cn2cc(-c3c[nH]c4ncc(-c5cn[nH]c5)nc34)cn2)c1 [I-3, 7-[1-(3-fluoro-benzyl)-1H-pyrazol-4-yl]-2-(1H-pyrazol-4-yl)-5H-pyrrolo[2,3-b]pyrazine] | 6.39
7.85 | Cc1[nH]ncc1-c1cnc2[nH]cc(-c3cnn(Cc4cccc5cccnc45)c3)c2n1 [I-15, 8-{4-[2-(5-methyl-1H-pyrazol-4-yl)-5H-pyrrolo[2,3-b]pyrazin-7-yl]-pyrazol-1-ylmethyl}-quinoline] | 6.19
8.72 | COc1ccc(Cn2cc(-c3c[nH]c4ncc(-c5cn[nH]c5C)nc34)cn2)cc1F [I-7, 7-[1-(3-fluoro-4-methoxy-benzyl)-1H-pyrazol-4-yl]-2-(5-methyl-1H-pyrazol-4-yl)-5H-pyrrolo[2,3-b]pyrazine] | 6.47
– | O=C(NCc1cncc(-c2c[nH]c3ncc(-c4cn[nH]c4)nc23)c1)c1ccc(F)cc1 [II-3, 4-fluoro-N-{5-[2-(1H-pyrazol-4-yl)-5H-pyrrolo[2,3-b]pyrazin-7-yl]-pyridin-3-ylmethyl}-benzamide] | 5.80
8.57 | Cc1n[nH]c(C)c1-c1cnc2[nH]cc(-c3cnn(Cc4cccc(F)c4)c3)c2n1 [I-10, 2-(3,5-dimethyl-1H-pyrazol-4-yl)-7-[1-(3-fluoro-benzyl)-1H-pyrazol-4-yl]-5H-pyrrolo[2,3-b]pyrazine] | 6.41
6.84 | Cn1nccc1C(=O)NCc1cncc(-c2c[nH]c3ncc(-c4cn[nH]c4)nc23)c1 [II-9, 2-methyl-2H-pyrazole-3-carboxylic acid {5-[2-(1H-pyrazol-4-yl)-5H-pyrrolo[2,3-b]pyrazin-7-yl]-pyridin-3-ylmethyl}-amide] | ≤ 4.30
8.63 | Cc1[nH]ncc1-c1cnc2[nH]cc(-c3cnn(Cc4ccc(F)c(Cl)c4)c3)c2n1 [I-2, 7-[1-(3-chloro-4-fluoro-benzyl)-1H-pyrazol-4-yl]-2-(5-methyl-1H-pyrazol-4-yl)-5H-pyrrolo[2,3-b]pyrazine] | 6.56
8.89 | Cc1[nH]ncc1-c1cnc2[nH]cc(-c3cnn(Cc4ccccc4C#N)c3)c2n1 [I-4, 2-{4-[2-(5-methyl-1H-pyrazol-4-yl)-5H-pyrrolo[2,3-b]pyrazin-7-yl]-pyrazol-1-ylmethyl}-benzonitrile] | 6.69

Structure (SMILES) | pIC50 [1] | pIC50 [2]
Cc1n[nH]cc1-c1cnc2[nH]cc(-c3cnn(C(C)(C)c4ccccc4)c3)c2n1 [I-17, 7-[1-(1-methyl-1-phenyl-ethyl)-1H-pyrazol-4-yl]-2-(3-methyl-1H-pyrazol-4-yl)-5H-pyrrolo[2,3-b]pyrazine] | 7.44 | 5.64
